According to patent US10548828B2, “Use of 3,6-anhydro-L-galactose for preventing dental caries” (Korea University Research and Business Foundation, priority 2015, dated 2020):

Legend:
[1] = tested on: S. sanguinis; assay: Growth inhibition under mixed carbon source condition (10 g/L glucose), 96-well plate; type: cell-based; details: 60 g/L added to 10 g/L glucose
Protocol: (§1) Strains used in the present experiment are Streptococcus mutans ATCC 25175, S. oralis, and S. sanguinis. Representatively, Streptococcus mutans ATCC 25175 was pre-cultured in a brain-heart infusion (BHI) medium for 12 hours, and was washed twice with a 2 mM potassium phosphate buffer, and then was subjected to main culture in a minimal medium prepared with reference to the previously reported document (Fujiwara et al (1978) Arch Oral Biol. 23, 601-602) at 37° C. and 180 rpm. […] Small amounts of Streptococcus mutans, S. oralis, and S. sanguinis were cultured, using the method of Example 5, in 200 μl of a liquid minimal medium containing 10 g/L of glucose and 3,6-anhydro-L-galactose or xylitol according to concentration in a 96-well plate, and growth inhibitory effects thereof were observed by measuring absorbance at a wavelength of 600 nm according to time. […]

[2] = tested on: Streptococcus mutans; assay: as above; type: cell-based, Streptococcus mutans ATCC 25175
Protocol: as §1

[3] = tested on: Streptococcus mutans; assay: Growth of Streptococcus mutans in liquid minimal medium, single carbon source (absorbance 600 nm); type: cell-based, Streptococcus mutans ATCC 25175; details: 10 g/L single carbon source, 20 h after entering a stationary phase
Protocol: Strains used in the present experiment are Streptococcus mutans ATCC 25175, S. oralis, and S. sanguinis. Representatively, Streptococcus mutans ATCC 25175 was pre-cultured in a brain-heart infusion (BHI) medium for 12 hours, and was washed twice with a 2 mM potassium phosphate buffer, and then was subjected to main culture in a minimal medium prepared with reference to the previously reported document (Fujiwara et al (1978) Arch Oral Biol. 23, 601-602) at 37° C. and 180 rpm. The composition of the minimal medium includes, in 5 mL of a 50 mM Tris-HCl buffer (pH 7.4), 10 mg of L-glutamic acid, 1 mg of cysteine hydrochloride, 4.5 mg of L-leucine, 5 mg of ammonium chloride, 17.5 mg of potassium hydrogen phosphate, 7.5 mg of potassium dihydrogen phosphate, 21 mg of a carbonate, 6 mg of magnesium sulfate heptahydrate, 0.1 mg of manganese chloride tetrahydrate, 3 mg of sodium pyruvate, 5 μg of riboflavin, 2.5 μg of thiamine hydrochloride, 0.5 μg of biotin, 5 μg of nicotinic acid, 0.5 μg of p-aminobenzoic acid, 2.5 μg of calcium pantothenate, and 5 μg of pyridoxine hydrochloride. […] The bacteria were main-cultured using the method of Example 5 for 35 h, and a degree of the cell growth was measured by measuring the absorbance of a culture at a wavelength of 600 nm every 5 h.

[4] = tested on: Streptococcus mutans; assay: Growth and acid production under mixed carbon source condition, 5 mL culture, absorbance and HPLC; type: cell-based, Streptococcus mutans ATCC 25175
Protocol: Strains used in the present experiment are Streptococcus mutans ATCC 25175, S. oralis, and S. sanguinis. Representatively, Streptococcus mutans ATCC 25175 was pre-cultured in a brain-heart infusion (BHI) medium for 12 hours, and was washed twice with a 2 mM potassium phosphate buffer, and then was subjected to main culture in a minimal medium prepared with reference to the previously reported document (Fujiwara et al (1978) Arch Oral Biol. 23, 601-602) at 37° C. and 180 rpm. The composition of the minimal medium includes, in 5 mL of a 50 mM Tris-HCl buffer (pH 7.4), 10 mg of L-glutamic acid, 1 mg of cysteine hydrochloride, 4.5 mg of L-leucine, 5 mg of ammonium chloride, 17.5 mg of potassium hydrogen phosphate, 7.5 mg of potassium dihydrogen phosphate, 21 mg of a carbonate, 6 mg of magnesium sulfate heptahydrate, 0.1 mg of manganese chloride tetrahydrate, 3 mg of sodium pyruvate, 5 μg of riboflavin, 2.5 μg of thiamine hydrochloride, 0.5 μg of biotin, 5 μg of nicotinic acid, 0.5 μg of p-aminobenzoic acid, 2.5 μg of calcium pantothenate, and 5 μg of pyridoxine hydrochloride. To verify an effect of 3,6-anhydro-L-galactose or xylitol on the growth of Streptococcus mutans and acid production, Streptococcus mutans bacteria were cultured, using the method of Example 5, in 5 mL of a liquid minimal medium containing 10 g/L of glucose and 0 g/L, 5 g/L or 10 g/L of 3,6-anhydro-L-galactose or 20 g/L or 40 g/L of xylitol for 35 h, and cell growth was measured using absorbance every 5 hours and concentrations of an extracellular substrate and acid production were measured by HPLC. A glucose only-added condition was set as a negative control, and a glucose- and xylitol-added condition was set as a positive control. A column used for analysis was Aminex HPX-87H, and 0.01 N of sulfuric acid as a mobile phase was flowed at a rate of 0.5 mL/min and 65° C.

[5] = tested on: S. mutans; assay: Inhibitory effects under sucrose, fructose or maltose conditions, 96-well plate; type: cell-based, Streptococcus mutans; details: for non-growth rate: 40 g/L added
Protocol: Strains used in the present experiment are Streptococcus mutans ATCC 25175, S. oralis, and S. sanguinis. Representatively, Streptococcus mutans ATCC 25175 was pre-cultured in a brain-heart infusion (BHI) medium for 12 hours, and was washed twice with a 2 mM potassium phosphate buffer, and then was subjected to main culture in a minimal medium prepared with reference to the previously reported document (Fujiwara et al (1978) Arch Oral Biol. 23, 601-602) at 37° C. and 180 rpm. The composition of the minimal medium includes, in 5 mL of a 50 mM Tris-HCl buffer (pH 7.4), 10 mg of L-glutamic acid, 1 mg of cysteine hydrochloride, 4.5 mg of L-leucine, 5 mg of ammonium chloride, 17.5 mg of potassium hydrogen phosphate, 7.5 mg of potassium dihydrogen phosphate, 21 mg of a carbonate, 6 mg of magnesium sulfate heptahydrate, 0.1 mg of manganese chloride tetrahydrate, 3 mg of sodium pyruvate, 5 μg of riboflavin, 2.5 μg of thiamine hydrochloride, 0.5 μg of biotin, 5 μg of nicotinic acid, 0.5 μg of p-aminobenzoic acid, 2.5 μg of calcium pantothenate, and 5 μg of pyridoxine hydrochloride. Under conditions of fermentable sugars other than glucose, for example, sucrose, fructose, and maltose, inhibitory effects of AHG and xylitol on S. mutans were investigated. An experiment was carried out in a 96-well plate containing 0 g/L to 10 g/L of AHG or 0 g/L to 40 g/L of xylitol in a specified minimal medium containing 10 g/L of each of sucrose, fructose, and maltose.

[6] = tested on: S. mutans; details: background statement; cited from earlier work
[7] = tested on: Streptococcus mutans; assay: Colony formation of Streptococcus mutans on solid minimal medium, single carbon source; type: cell-based, Streptococcus mutans ATCC 25175; details: 10 g/L as single carbon source, 30 h
Protocol: Strains used in the present experiment are Streptococcus mutans ATCC 25175, S. oralis, and S. sanguinis. Representatively, Streptococcus mutans ATCC 25175 was pre-cultured in a brain-heart infusion (BHI) medium for 12 hours, and was washed twice with a 2 mM potassium phosphate buffer, and then was subjected to main culture in a minimal medium prepared with reference to the previously reported document (Fujiwara et al (1978) Arch Oral Biol. 23, 601-602) at 37° C. and 180 rpm. The composition of the minimal medium includes, in 5 mL of a 50 mM Tris-HCl buffer (pH 7.4), 10 mg of L-glutamic acid, 1 mg of cysteine hydrochloride, 4.5 mg of L-leucine, 5 mg of ammonium chloride, 17.5 mg of potassium hydrogen phosphate, 7.5 mg of potassium dihydrogen phosphate, 21 mg of a carbonate, 6 mg of magnesium sulfate heptahydrate, 0.1 mg of manganese chloride tetrahydrate, 3 mg of sodium pyruvate, 5 μg of riboflavin, 2.5 μg of thiamine hydrochloride, 0.5 μg of biotin, 5 μg of nicotinic acid, 0.5 μg of p-aminobenzoic acid, 2.5 μg of calcium pantothenate, and 5 μg of pyridoxine hydrochloride. To verify an effect of inhibiting the growth of Streptococcus mutans under a single carbon source condition, Streptococcus mutans was cultured in a solid minimal medium and a liquid minimal medium that contained 10 g/L of each of 3,6-anhydro-L-galactose, glucose, and xylitol. […]

SMILES: OC[C@@H](O)[C@H](O)[C@@H](O)CO [xylitol]
- inhibitory effect on S. sanguinis [1]: strong inhibitory effect
- growth of Streptococcus mutans, concentration dependence ([2]; 0-60 g/L added to 10 g/L glucose): inhibited as the treated concentration of xylitol was increased
- growth of Streptococcus mutans ([2]; 40 g/L added to 10 g/L glucose): considerable cell growth was observed
- dry cell weight (DCW) of Streptococcus mutans [3]: 1.46 g/L
- concentration of produced acetic acid ([4]; 20 g/L in 10 g/L glucose): 0.55 g/L
- concentration of produced lactic acid ([4]; 20 g/L in 10 g/L glucose): 3.67 g/L
- final dry cell weight ([4]; 20 g/L in 10 g/L glucose): 1.42 g/L
- glucose consumed ([4]; 20 g/L in 10 g/L glucose): 5.28 g/L
- non-growth rate ([4]; 20 g/L in 10 g/L glucose): 0.087 h⁻¹
- concentration of consumed glucose ([4]; 40 g/L in 10 g/L glucose): 5.42 g/L
- concentration of produced acetic acid ([4]; 40 g/L in 10 g/L glucose): 0.55 g/L
- concentration of produced lactic acid ([4]; 40 g/L in 10 g/L glucose): 3.67 g/L
- inhibition of growth of Streptococcus mutans and acid production ([4]; 40 g/L in 10 g/L glucose): did not completely inhibit
- lag phase ([4]; 40 g/L in 10 g/L glucose, compared with 20 g/L): longer
- use as a carbon source / fermentation by Streptococcus mutans ([4]; in 10 g/L glucose): non-fermentation properties
- concentration of the added sugar during culture ([4]; in 10 g/L glucose, 35 h culture): constantly maintained
- non-growth rate ([5]; 10 g/L fructose): 0.085 h⁻¹
- non-growth rate ([5]; 10 g/L maltose): 0.045 h⁻¹
- cell growth of S. mutans, concentration dependence ([5]; 10 g/L sucrose, 0-40 g/L added): decreased as the concentration of xylitol was increased
- non-growth rate ([5]; 10 g/L sucrose): 0.061 h⁻¹
- cell growth of S. mutans ([5]; 10 g/L sucrose, 40 g/L added (maximum concentration)): did not completely inhibit
- concentration at which the growth of S. mutans can be inhibited [6]: ≥ 25 g/L
- formation of colonies compared to the glucose condition [7]: inhibited
